The values that follow come from PMC6150212, “New Biflavonoids with α-Glucosidase and Pancreatic Lipase Inhibitory Activities from Boesenbergia rotunda” (Molecules : A Journal of Synthetic Chemistry and Natural …, 2017).

Read-outs that look alike come from different tables or passages of the source.

By inhibition is commonly meant how much of the control response was suppressed. Lower therefore signals a weak effect. The IC50 is the midpoint of a concentration-inhibition curve. As usually defined, the Km is the concentration of substrate that gives half-maximal velocity. One may read the Ki as the dissociation constant of the complex between target and ligand, obtained from inhibition or displacement.

The target of assay [1] is T1, lipase from porcine pancreas (Type II) (Sus scrofa, UniProt P00591).
T1 construct: lipase from porcine pancreas (Type II); purchased Sigma Chemical, Inc. (St. Louis, MO, USA); host or cells: porcine pancreas
T1 sequence (P00591 1-450): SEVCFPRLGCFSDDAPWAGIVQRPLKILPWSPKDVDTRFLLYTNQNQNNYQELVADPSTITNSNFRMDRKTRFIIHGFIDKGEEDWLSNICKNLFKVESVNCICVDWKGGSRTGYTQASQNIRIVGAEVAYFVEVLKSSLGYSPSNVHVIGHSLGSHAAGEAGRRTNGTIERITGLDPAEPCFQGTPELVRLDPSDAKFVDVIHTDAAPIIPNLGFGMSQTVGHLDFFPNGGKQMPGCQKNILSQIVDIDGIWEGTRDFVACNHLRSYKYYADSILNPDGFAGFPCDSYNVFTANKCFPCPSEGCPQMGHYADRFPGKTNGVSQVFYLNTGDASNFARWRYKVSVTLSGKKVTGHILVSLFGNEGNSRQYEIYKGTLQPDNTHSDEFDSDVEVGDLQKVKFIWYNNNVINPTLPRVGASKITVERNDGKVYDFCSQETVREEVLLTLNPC
In words: Lipase inhibitory activity assay (4MUO substrate). In kind it is biochemical. Here is the method:
(§1) Optical rotations were obtained with a Perkin-Elmer 341 polarimeter (Boston, MA, USA). UV spectra were measured on a Milton Roy Spectronic 300 Array spectrophotometer, and IR was recorded on a Perkin-Elmer FT-IR 1760x spectrophotometer (Boston, MA, USA). High-resolution electrospray ionization mass spectra (HR-ESI-MS) were recorded with a Bruker micro TOF mass spectrometer (Billerica, MA, USA). NMR spectra were obtained with a Bruker Avance DPX-300 FT-NMR spectrometer (Billerica, MA, USA). Vacuum liquid chromatography (VLC) and column chromatography (CC) were performed on silica gel 60 (Merck, 70–230 µm, Darmstadt, Germany), silica gel 60 (Merck, […]) or Sephadex LH-20 (Pharmacia, Piscataway, NJ, USA). Yeast α-glucosidase enzyme, p-nitrophenol-α-D-glucopyranoside, pancreatic lipase, and 4-methylumbelliferyl oleate were purchased from Sigma Chemical, Inc. (St. Louis, MO, USA), and acarbose from Fluka Chemical (Buchs, Switzerland).
(§2) The lipase inhibitory activity was assessed by measuring the amount of 4-methylumbelliferone (4MU), using 4-methylumbelliferyl oleate (4MUO) as substrate. The assay was modified from a previously reported method. In brief, 25 μL of a blank, plant extract vehicle, or a sample solution and 50 μL of 0.5 mM 4MUO in buffer consisting of 13 mM Tris-HCl, 150 mM NaCl, and 1.3 mM CaCl2 (pH 8.0), were mixed in 96-well microtiter plate. Twenty-five microliters of lipase from porcine pancreas (Type II), prepared at 0.5 mg/mL in the same buffer, was then added to start the enzyme reaction. After incubation at room temperature for 30 min, 100 μL of 0.1 M sodium citrate (pH 4.2) was added to stop the reaction. Fluorescence, corresponding to released 4MU, was then measured with excitation and emission wavelengths of 355 and 460 nm, respectively.

In assay [2] the test system is Yeast α-glucosidase enzyme. In words: α-Glucosidase inhibitory activity assay (PNPG hydrolysis). In kind it is biochemical. The protocol: as §1
(§3) The assay was based on the capacity of the sample to inhibit the hydrolysis of p-nitrophenyl-α-D-glucoside (PNPG) by α-glucosidase to release p-nitrophenol (PNP), a yellow color agent that can be monitored at 405 nm. Briefly, 10 μL of sample solution and 40 μL of 0.1 unit/mL α-glucosidase were incubated at 37 °C for 10 min. Then, 50 μL of 2 mM PNPG was added, and the mixture was further incubated at 37 °C for 20 min. One hundred microliters of 1 mM Na2CO3 was added, and the progress of the enzyme inhibition was monitored by measuring the absorbance at 405 nm. Acarbose was used as a positive control.

Assay [3] deals with Yeast α-glucosidase enzyme. In words: Kinetic study of α-glucosidase inhibition (Lineweaver-Burk and secondary plots). In kind it is biochemical. The following applies: for Mode of inhibition of α-glucosidase / Km: Lineweaver-Burk plot; for Km: PNPG substrate, read-out: Michaelis-Menten constant, Km (x-axis intersection), α-glucosidase; for Ki: from secondary plot, read-out: α-Glucosidase inhibition constant (Ki). Here is the method:
as §3
(§4) An enzyme kinetic analysis was performed based on the α-glucosidase or lipase inhibition assay as described above. The PNPG concentrations varied from 1 to 4 mM, and the 4-MUO concentrations varied from 0.063 to 1 mM in the absence or presence of the test compounds for kinetic assays of α-glucosidase and lipase, respectively. The inhibition mode was determined by double-reciprocal Lineweaver-Burk plot (1/V vs. 1/[S]). In order to estimate the Ki value, slopes of double-reciprocal lines were used to construct a secondary plot, and Ki was calculated from the line equation of the plot.

Assay [4] has as its system high-fat-diet (HFD)-induced obesity. Also noted: method as in PMID 22312299, PMID 21320266. Conditions: mice; by activating AMPK; cited from earlier work.
Assay [5] concerns the target T1, lipase from porcine pancreas (Type II). In words: Kinetic study of lipase inhibition (Lineweaver-Burk and secondary plots). The format is biochemical. Conditions: for Mode of inhibition of lipase: Lineweaver-Burk plot; for Ki: from secondary plot. Here is the method:
as §2, §4

Regarding `O=C1C[C@@H](c2ccccc2)Oc2cc(O)cc(O)c21` [Compound 5, Pinocembrin], 20 µg/mL produced 3.7 ± 1.3% inhibition in assay [1]. Besides, in assay [2], the “α-Glucosidase % Inhibition (at 20 µg/mL)” value was found to be 19.8 ± 0.1%.
Take `COc1cc(O)cc(O)c1C(=O)CC(c1ccccc1)c1c(O)cc2c(c1O)C(=O)CC(c1ccccc1)O2` (stereo not shown) [Compound 12, iso-rotundaflavanochalcone]: in assay [1], the IC50 is 30.1 ± 2.3 µM and at 20 µg/mL the inhibition was 67.8 ± 1.3%. Also, in assay [2], it took 3.4 ± 0.9 µM to reach half-maximal inhibition (IC50) and the “α-Glucosidase % Inhibition (at 20 µg/mL)” value is 100.0 ± 0.2%.
Take `COc1cc(O)cc(O)c1C(=O)/C=C/c1ccccc1` [Compound 6, Cardamonin]: in assay [1], testing at 20 µg/mL gave an inhibition of 7.7 ± 1.9%. Besides, the “α-Glucosidase % Inhibition (at 20 µg/mL)” value in assay [2] is given as 19.7 ± 0.9%.
`COc1cc(O)c2c(c1)O[C@H](c1ccccc1)CC2=O` [Compound 1, Pinostrobin] showed an inhibition at 20 µg/mL in assay [1] of 7.9 ± 0.8%. For the same compound, in assay [2], the “α-Glucosidase % Inhibition (at 20 µg/mL)” value turned out to be 10.0 ± 2.9%.
`CC(C)=CC[C@@H]1C(C)=CC[C@@H](c2ccccc2)[C@@H]1C(=O)c1c(O)cc(O)cc1O` [Compound 7, Hydroxypanduratin A] came in with an inhibition at 20 µg/mL in assay [1] of 49.3 ± 2.7%. Also, in assay [3], the “Mode of inhibition of α-glucosidase” value is “non-competitive”, the Km is 460 µM and the Ki turned out to be 4.03 µM. In addition, in assay [2], the IC50 was 4.6 ± 0.4 µM and the “α-Glucosidase % Inhibition (at 20 µg/mL)” value worked out at 98.5 ± 0.4%.
Turning to Alpinetin [Compound 11], the “Lipase % Inhibition (at 20 µg/mL)” value in assay [1] (at 20 µg/mL) came out at 8.0 ± 1.9%. For the same compound, the “α-Glucosidase % Inhibition (at 20 µg/mL)” value in assay [2] came to 7.0 ± 2.0%.
Consider `COc1cc(/C=C/c2ccccc2)oc(=O)c1` [Compound 8, 5,6-Dehydrokawain], for which, in assay [1], the inhibition at 20 µg/mL amounted to 33.7 ± 1%. Moreover, in assay [2], the “α-Glucosidase % Inhibition (at 20 µg/mL)” value worked out at 9.5 ± 2.5%.
Turning to `O=C(CCc1ccccc1)c1c(O)cc(O)cc1O` [Compound 10, 2′,4′,6′-Trihydroxydihydrochalcone], in assay [1], the inhibition at 20 µg/mL came to 48.7 ± 3.5%. For the same compound, in assay [2], inhibition was half-maximal at 32 ± 2.2 µM (IC50) and the “α-Glucosidase % Inhibition (at 20 µg/mL)” value turned out to be 88.1 ± 0.9%.
In assay [1], `COc1cc(O)c(C(=O)[C@@H]2[C@H](CC=C(C)C)C(C)=CC[C@H]2c2ccccc2)c(O)c1` [Compound 3, Panduratin A] returned an IC50 of 17.1 ± 3.7 µM and an inhibition at 20 µg/mL of 72.3 ± 0.1%. Moreover, the “Effect on high-fat-diet (HFD)-induced obesity” value in assay [4] was “attenuate high-fat-diet (HFD)-induced obesity”. For the same compound, in assay [2], 12.7 ± 1.3 µM corresponded to half-maximal inhibition (IC50) and the “α-Glucosidase % Inhibition (at 20 µg/mL)” value was 94.7 ± 0.4%.
As to `C[C@H]1O[C@H](O[C@H]2[C@H](O)[C@@H](O)[C@@H](O[C@H]3[C@H](O)[C@@H](O)C(O)O[C@@H]3CO)O[C@@H]2CO)[C@H](O)[C@@H](O)[C@@H]1N[C@H]1C=C(CO)[C@@H](O)[C@H](O)[C@H]1O` (stereo partly shown) [Acarbose, reference compound], in assay [3], the “Mode of inhibition of α-glucosidase” value was “competitive”. Besides, the Ki in assay [3] worked out at 167 µM. Further, the IC50 in assay [2] came to 1160 ± 23 µM; in assay [2] (rounded value) it was 1200 µM.
With `CC(C)=CCC/C(C)=C/CO` [Compound 2, Geraniol], in assay [1], the inhibition at 20 µg/mL is 30.6 ± 2%. Besides, the “α-Glucosidase % Inhibition (at 20 µg/mL)” value in assay [2] stood at 9.6 ± 4.0%.
`COc1cc(O)cc(O)c1C(=O)C1C(CC=C(C)C)C(C)=CCC1c1ccccc1` (stereo not shown) [Compound 4, Isopanduratin A]: in assay [1], the IC50 was determined as 15.1 ± 3.3 µM and the inhibition at 20 µg/mL turned out to be 75.2 ± 1.1%. Moreover, in assay [5], the “Mode of inhibition of lipase” value is recorded as “mixed-type” and the Ki came out at 5.79 µM. Further, in assay [2], it took 7.5 ± 0.6 µM to reach half-maximal inhibition (IC50) and the “α-Glucosidase % Inhibition (at 20 µg/mL)” value is given as 97.8 ± 0.8%.
Turning to `COc1cc(O)cc2c1C(=O)CC(c1ccc(O)cc1)O2` (stereo not shown) [Compound 15, 4′-7-Dihydroxy-5-methoxyflavanone], the inhibition at 20 µg/mL in assay [1] worked out at 44.7 ± 1.7%. Also, the “α-Glucosidase % Inhibition (at 20 µg/mL)” value in assay [2] came out at 20.9 ± 2.1%.
Taken in the same sequence, the figures for `COc1cc(O)cc(O)c1C(=O)/C=C/c1ccc(O)cc1` [Compound 14, 4,4′,6′-trihydroxy-2′-methoxychalcone] were 70.9 ± 2% and 97.1 ± 0.5%.
Consider `CCCCCCCCCCC[C@@H](C[C@@H]1OC(=O)[C@H]1CCCCCC)OC(=O)[C@H](CC(C)C)NC=O` [Orlistat, reference compound], for which the “Mode of inhibition of lipase” value in assay [5] is listed as “competitive”.
For the compound `O=C(CC(c1ccccc1)c1c(O)cc2c(c1O)C(=O)CC(c1ccccc1)O2)c1c(O)cc(O)cc1O` (stereo not shown) [Compound 13, de-O-methyl rotundaflavanochalcone], in assay [1], the IC50 was determined as 10.6 ± 1.2 µM and at 20 µg/mL the inhibition was 80.5 ± 0.6%. In assay [2], half-maximal inhibition (IC50) was put at 1.3 ± 0.2 µM and the “α-Glucosidase % Inhibition (at 20 µg/mL)” value is on record as 100.0 ± 0.1%.
In assay [1], `COc1cc(O)c(C(=O)CC(c2ccccc2)c2c(O)cc3c(c2O)C(=O)CC(c2ccccc2)O3)c(O)c1` (stereo not shown) [Compound 9, rotundaflavanochalcone] displayed an IC50 of 25.8 ± 2.6 µM and an inhibition at 20 µg/mL of 69.1 ± 1.6%. In addition, in assay [3], the “Mode of inhibition of α-glucosidase” value is reported as “non-competitive”, the Km was found to be 470 µM and the Ki turned out to be 7.19 µM. Further, in assay [5], the “Mode of inhibition of lipase” value was “non-competitive” and the Ki came to 3.55 µM. In addition, in assay [2], the midpoint of inhibition, the IC50, lay at 2.4 ± 0.4 µM and the “α-Glucosidase % Inhibition (at 20 µg/mL)” value was 100.0 ± 0.0%.
